# pIC50: −log10 of the molar value.
# Target: T1, human Cav2.2 (Homo sapiens, UniProt Q00975)
# T1 construct: cells endogenously expressing human Cav2.2; endogenous in cells; host or cells: IMR32 cells
# Test: Calcium flux (FLIPR, Calcium 4 dye) in IMR32 cells endogenously expressing human Cav2.2
# Format: cell-based
# Settings: 60 minute pre-incubation, 2 μM nifedipine to block L-type channels, depolarized with 80 mM KCl, 5 mM CaCl2, average of n≥2 runs unless marked *
# Protocol: Compounds were tested for effect on calcium flux in cells endogenously expressing human Cav2.2. Specifically, IMR32 cells endogenously expressing human Cav2.2 were assayed for Ca^2+ influx using a no-wash calcium indicator dye (Calcium 4 dye: Molecular Probes) and FLIPR technology (Lubin, M L; et al. Assay and Drug Development Technologies, 2006, 4(6), 689-694). The IMR32 cells were maintained in MEM media containing 10% (v/v) FBS, 1% (v/v) antibiotic/antimitotic, 1% (v/v) sodium pyruvate and 1% (v/v) MEM NEAA. Following dissociation in 0.05% (v/v) trypsin/EDTA, cells were seeded into black 1×96-well plates (Corning Cellbind) at a density of 1−1.2×10^5 cells/well and incubated in the maintenance media above for 48 hours at 37° C. Immediately prior to performing the assay the media was removed and cells were loaded for 1.5 hours with 1× Calcium 4 dye prepared in HBSS (137 mM NaCl, 5.4 mM KCl, 0.25 mM Na2HPO4, 0.44 mM KH2PO4, 1.3 mM CaCl2, 1 mM MgSO4, 4.2 mM NaHCO3) containing HEPES pH 7.4 at room temperature. After dye loading and a subsequent 60 minute pre-incubation with compounds (full log dilutions from 10 μM to 0.1 nM) in the presence of 1.3 mM CaCl2 and 2 μM nifedipine to block endogenous L-type channels, the external Ca^2+ concentration was increased to 5 mM CaCl2 and the cells concomitantly depolarized with 80 mM KCl to assay channel activity.
# To determine the IC50 values, the percent inhibition of the compound at each concentration was determined relative to the activity in the absence of inhibitor, and data was fitted using non-linear regression sigmoidal dose response curve analysis with GraphPad Prism®. Unless otherwise indicated (*), the reported values are average values from at least two runs (i.e., n≧2).
# T1 sequence (Q00975 whole entry): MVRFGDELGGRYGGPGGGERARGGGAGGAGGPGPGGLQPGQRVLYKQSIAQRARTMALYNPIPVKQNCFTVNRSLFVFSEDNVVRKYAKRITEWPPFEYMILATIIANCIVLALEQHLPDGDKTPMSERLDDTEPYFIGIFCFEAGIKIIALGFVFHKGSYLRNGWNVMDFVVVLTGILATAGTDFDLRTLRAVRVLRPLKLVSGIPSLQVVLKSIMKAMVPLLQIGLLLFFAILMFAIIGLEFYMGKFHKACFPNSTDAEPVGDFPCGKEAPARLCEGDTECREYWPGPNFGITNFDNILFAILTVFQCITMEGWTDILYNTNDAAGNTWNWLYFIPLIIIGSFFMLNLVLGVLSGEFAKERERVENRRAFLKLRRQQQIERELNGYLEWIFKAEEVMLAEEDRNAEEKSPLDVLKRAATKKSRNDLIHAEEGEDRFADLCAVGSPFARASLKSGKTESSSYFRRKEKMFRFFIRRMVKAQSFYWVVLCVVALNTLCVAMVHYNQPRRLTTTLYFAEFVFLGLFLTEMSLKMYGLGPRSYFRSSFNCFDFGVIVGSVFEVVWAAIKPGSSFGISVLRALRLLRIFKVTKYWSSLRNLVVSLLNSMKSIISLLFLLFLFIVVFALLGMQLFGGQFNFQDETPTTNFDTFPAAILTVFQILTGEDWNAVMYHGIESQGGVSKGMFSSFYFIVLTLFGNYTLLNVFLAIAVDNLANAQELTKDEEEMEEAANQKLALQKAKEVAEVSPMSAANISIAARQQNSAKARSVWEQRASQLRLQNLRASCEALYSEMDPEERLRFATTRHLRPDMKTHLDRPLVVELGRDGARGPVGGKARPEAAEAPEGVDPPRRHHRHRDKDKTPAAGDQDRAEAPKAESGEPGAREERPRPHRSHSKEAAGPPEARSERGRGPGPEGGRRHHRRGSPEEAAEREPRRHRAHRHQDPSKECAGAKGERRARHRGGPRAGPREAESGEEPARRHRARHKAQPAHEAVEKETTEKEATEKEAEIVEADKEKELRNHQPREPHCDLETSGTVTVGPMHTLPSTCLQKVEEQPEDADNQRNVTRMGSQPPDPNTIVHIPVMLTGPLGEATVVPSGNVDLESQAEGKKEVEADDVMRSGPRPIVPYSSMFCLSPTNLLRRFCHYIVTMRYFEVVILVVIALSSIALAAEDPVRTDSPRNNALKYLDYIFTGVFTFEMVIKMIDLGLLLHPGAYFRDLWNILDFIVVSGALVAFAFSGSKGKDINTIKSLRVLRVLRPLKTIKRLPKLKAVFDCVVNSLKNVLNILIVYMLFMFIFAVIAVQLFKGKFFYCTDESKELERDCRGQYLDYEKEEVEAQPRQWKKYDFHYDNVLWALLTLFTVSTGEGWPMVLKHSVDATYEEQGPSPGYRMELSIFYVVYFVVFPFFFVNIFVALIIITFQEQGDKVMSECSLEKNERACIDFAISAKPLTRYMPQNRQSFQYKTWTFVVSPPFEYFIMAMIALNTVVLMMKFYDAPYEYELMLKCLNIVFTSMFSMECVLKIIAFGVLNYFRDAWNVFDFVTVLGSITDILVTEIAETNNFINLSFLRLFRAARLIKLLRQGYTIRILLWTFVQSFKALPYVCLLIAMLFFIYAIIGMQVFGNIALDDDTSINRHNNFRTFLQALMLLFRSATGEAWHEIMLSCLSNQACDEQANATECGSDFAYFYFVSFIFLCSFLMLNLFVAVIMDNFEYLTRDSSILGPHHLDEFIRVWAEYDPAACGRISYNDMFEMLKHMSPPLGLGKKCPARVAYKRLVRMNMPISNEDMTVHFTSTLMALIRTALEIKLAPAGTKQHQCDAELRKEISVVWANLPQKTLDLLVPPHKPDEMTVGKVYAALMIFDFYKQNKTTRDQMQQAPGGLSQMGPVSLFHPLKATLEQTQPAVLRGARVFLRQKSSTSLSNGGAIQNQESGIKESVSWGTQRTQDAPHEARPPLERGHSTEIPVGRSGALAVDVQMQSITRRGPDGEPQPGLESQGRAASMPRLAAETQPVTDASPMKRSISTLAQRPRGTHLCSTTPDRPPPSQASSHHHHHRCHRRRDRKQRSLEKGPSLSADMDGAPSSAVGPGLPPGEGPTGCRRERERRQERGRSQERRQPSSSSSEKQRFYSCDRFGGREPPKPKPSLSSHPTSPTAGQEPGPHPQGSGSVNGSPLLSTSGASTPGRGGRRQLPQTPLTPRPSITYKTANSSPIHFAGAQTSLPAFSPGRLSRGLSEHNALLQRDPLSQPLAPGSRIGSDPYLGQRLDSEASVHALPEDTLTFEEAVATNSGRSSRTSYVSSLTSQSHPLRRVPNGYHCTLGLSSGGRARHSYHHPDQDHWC
# T1 sequence (P54284 whole entry partner): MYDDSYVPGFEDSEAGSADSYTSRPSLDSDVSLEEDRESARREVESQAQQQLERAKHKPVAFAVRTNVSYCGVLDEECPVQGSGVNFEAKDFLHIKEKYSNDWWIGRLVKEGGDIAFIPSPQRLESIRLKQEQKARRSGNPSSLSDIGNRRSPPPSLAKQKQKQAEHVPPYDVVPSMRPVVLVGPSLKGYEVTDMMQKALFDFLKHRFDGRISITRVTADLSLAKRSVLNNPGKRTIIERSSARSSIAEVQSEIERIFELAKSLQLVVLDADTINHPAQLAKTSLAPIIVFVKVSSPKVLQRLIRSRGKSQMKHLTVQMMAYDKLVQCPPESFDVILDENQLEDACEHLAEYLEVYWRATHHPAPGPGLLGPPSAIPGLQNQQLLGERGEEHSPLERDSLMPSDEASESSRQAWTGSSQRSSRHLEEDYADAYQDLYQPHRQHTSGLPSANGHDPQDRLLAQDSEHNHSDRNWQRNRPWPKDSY
# T1 sequence (P54289 25-956 partner limits assumed): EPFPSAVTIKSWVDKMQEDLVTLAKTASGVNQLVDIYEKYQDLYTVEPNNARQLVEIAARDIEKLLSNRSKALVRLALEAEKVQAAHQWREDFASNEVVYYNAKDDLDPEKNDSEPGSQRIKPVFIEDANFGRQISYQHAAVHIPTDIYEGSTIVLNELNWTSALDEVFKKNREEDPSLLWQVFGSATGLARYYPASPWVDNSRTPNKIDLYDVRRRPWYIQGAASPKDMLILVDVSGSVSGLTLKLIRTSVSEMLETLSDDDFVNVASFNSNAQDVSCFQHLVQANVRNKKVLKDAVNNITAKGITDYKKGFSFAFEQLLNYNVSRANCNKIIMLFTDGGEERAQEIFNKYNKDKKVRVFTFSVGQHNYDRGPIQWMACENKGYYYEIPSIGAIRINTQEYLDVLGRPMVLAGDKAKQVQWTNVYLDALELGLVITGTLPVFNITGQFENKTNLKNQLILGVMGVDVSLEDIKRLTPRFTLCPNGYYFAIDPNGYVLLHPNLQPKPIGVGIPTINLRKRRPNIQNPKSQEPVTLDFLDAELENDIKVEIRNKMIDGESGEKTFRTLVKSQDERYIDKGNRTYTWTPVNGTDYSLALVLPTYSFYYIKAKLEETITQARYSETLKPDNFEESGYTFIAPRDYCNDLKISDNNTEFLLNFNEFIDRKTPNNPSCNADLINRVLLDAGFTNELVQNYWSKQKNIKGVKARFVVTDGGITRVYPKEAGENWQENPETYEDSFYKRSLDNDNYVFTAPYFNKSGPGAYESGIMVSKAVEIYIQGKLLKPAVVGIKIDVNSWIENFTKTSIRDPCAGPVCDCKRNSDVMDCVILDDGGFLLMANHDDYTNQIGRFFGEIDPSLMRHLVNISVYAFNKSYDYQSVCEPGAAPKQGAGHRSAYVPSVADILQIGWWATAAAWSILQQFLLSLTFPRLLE
# T1 sequence (P54289 957-1103 partner limits assumed): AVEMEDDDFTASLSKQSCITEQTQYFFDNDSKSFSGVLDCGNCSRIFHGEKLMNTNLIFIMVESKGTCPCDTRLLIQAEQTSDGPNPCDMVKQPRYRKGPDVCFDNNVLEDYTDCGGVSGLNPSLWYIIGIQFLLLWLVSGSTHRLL
row,Structure (SMILES),pIC50
1,"O=C1CCN(c2ncc(C(F)(F)F)cc2Cl)C[C@@H]2C[C@@H](Oc3cnc(C4CC4)cn3)CN12 [Example 49, (8R,9aS)-2-[3-chloro-5-(trifluoromethyl)pyridin-2-yl]-8-[(5-cyclopropylpyrazin-2-yl)oxy]octahydro-5H-pyrrolo[1,2-a][1,4]diazepin-5-one]",5.67
2,"O=C1CCN(S(=O)(=O)c2ccc(C(F)(F)F)cc2)C[C@H]2C[C@H](Oc3cnc(C4CC4)cn3)CN12 [Example 64, (8S,9aR)-8-[(5-cyclopropylpyrazin-2-yl)oxy]-2-{[4-(trifluoromethyl)phenyl]sulfonyl}octahydro-5H-pyrrolo[1,2-a][1,4]diazepin-5-one]",5.66
3,"O=C(c1cc(C(F)(F)F)ccc1F)N1CCCN2C[C@H](Oc3cnc(C4CC4)cn3)C[C@H]2C1 [Example 17, [(8R,9aS)-8-[(5-cyclopropylpyrazin-2-yl)oxy]hexahydro-1H-pyrrolo[1,2-a][1,4]diazepin-2(3H)-yl][2-fluoro-5-(trifluoromethyl)phenyl]methanone]",5.80
4,"O=C1CCN(S(=O)(=O)c2cccc(C(F)(F)F)c2)C[C@@H]2C[C@@H](Oc3ccc(C(F)(F)F)cn3)CN12 [Example 31, (8R,9aS)-2-{[3-(trifluoromethyl)phenyl]sulfonyl}-8-{[5-(trifluoromethyl)pyridin-2-yl]oxy}octahydro-5H-pyrrolo[1,2-a][1,4]diazepin-5-one]",6.22
5,"O=C1CCN(S(=O)(=O)c2cccc(C(F)(F)F)c2)C[C@@H]2C[C@@H](Oc3cnc(C4CC4)cn3)CN12 [Example 28, (8R,9aS)-8-[(5-cyclopropylpyrazin-2-yl)oxy]-2-{[3-(trifluoromethyl)phenyl]sulfonyl}octahydro-5H-pyrrolo[1,2-a][1,4]diazepin-5-one]",5.74
6,"O=C(c1ccc(F)c(C(F)(F)F)c1)N1CCCN2C[C@H](Oc3cnc(C4CC4)cn3)C[C@H]2C1 [Example 14, [(8R,9aS)-8-[(5-cyclopropylpyrazin-2-yl)oxy]hexahydro-1H-pyrrolo[1,2-a][1,4]diazepin-2(3H)-yl][4-fluoro-3-(trifluoromethyl)phenyl]methanone]",5.84
7,"O=C1[C@@H]2C[C@@H](Oc3cnc(C4CC4)cn3)CN2CCCN1Cc1cccc(C(F)(F)F)c1 [Example 22, (8R,9aS)-8-[(5-cyclopropylpyrazin-2-yl)oxy]-2-[3-(trifluoromethyl)benzyl]octahydro-1H-pyrrolo[1,2-a][1,4]diazepin-1-one]",5.76
8,"O=C1CCN(c2ncc(C(F)(F)F)cc2F)C[C@@H]2C[C@@H](Oc3cnc(C4CC4)cn3)CN12 [Example 50, (8R,9aS)-8-[(5-cyclopropylpyrazin-2-yl)oxy]-2-[3-fluoro-5-(trifluoromethyl)pyridin-2-yl]octahydro-5H-pyrrolo[1,2-a][1,4]diazepin-5-one]",5.61
9,"O=C(c1ccc(OC(F)(F)F)cc1)N1CCC(=O)N2C[C@H](Oc3cnc(C4CC4)cn3)C[C@H]2C1 [Example 38, (8R,9aS)-8-[(5-cyclopropylpyrazin-2-yl)oxy]-2-[4-(trifluoromethoxy)benzoyl]octahydro-5H-pyrrolo[1,2-a][1,4]diazepin-5-one]",5.55
10,"O=C1CCN(c2ccc(C(F)(F)F)cn2)C[C@@H]2C[C@H](Oc3cnc(C4CC4)cn3)CN12 [Example 30, (8S,9aS)-8-[(5-cyclopropylpyrazin-2-yl)oxy]-2-[5-(trifluoromethyl)pyridin-2-yl]octahydro-5H-pyrrolo[1,2-a][1,4]diazepin-5-one]",5.20
11,"O=C(c1cccc(C(F)(F)F)n1)N1CCCN2C[C@H](Oc3cnc(C4CC4)cn3)C[C@H]2C1 [Example 12, [(8R,9aS)-8-[(5-cyclopropylpyrazin-2-yl)oxy]hexahydro-1H-pyrrolo[1,2-a][1,4]diazepin-2(3H)-yl][6-(trifluoromethyl)pyridin-2-yl]methanone]",5.21

# Source: patent US9382258B2, “Agents for treating pain and uses thereof” (AbbVie Inc., priority 2012, dated 2016)
